{"source": "patent US20260335348A1", "about": "“PHARMACEUTICAL FORMS OF A CD73 INHIBITOR” (ORIC Pharmaceuticals, Inc., priority 2022, published 2026)", "key": {"[1]": {"assay": "Solubility of gentisate Form 2 of Compound 1 in water, SGF, FaSSIF and FeSSIF after 4 hours at 37 °C (HPLC)", "type": "physicochemical", "protocol": "The solubility of a polymorphic form of a gentisate form of Compound 1 was measured in water, simulated gastric fluid (SGF), fasted-state simulated intestinal fluid (FaSSIF), and fed-state simulated intestinal fluid (FeSSIF) after 4 hours and at 37 °C as follows.\nThe SGF media was prepared by weighing 49.5 mg of NaCl and 25.4 mg of Triton X-100 into a 100-mL volumetric flask. A volume of purified water was added to the flask and the resulting mixture was sonicated until all solids were dissolved. About 1.632 mL of HCl solution (1 M) were then added and sufficient purified water to the target volume and to adjust the pH to 1.8. The solution was then diluted to volume with purified water, mixed well and the pH value was measured to be 1.83.\nA FaSSIF buffer was prepared by weighing 340.8 mg of NaH2PO4, 43.0 mg of NaOH and 619.6 mg of NaCl into a 100-mL volumetric flask. A volume of purified water was added to the flask and the resulting mixture was sonicated until the solids had dissolved. A second volume of purified water was added to the flask to adjust the pH to 6.5. The solution was diluted with another volume of purified water, mixed, and the pH value was measured to be 6.54. The FaSSIF media was prepared by weighing 110.4 mg of SIF powder into a 50-mL volumetric flask to which a volume of FaSSIF dissolving buffer was added. The resulting mixture was sonicated until the SIF powder dissolved. Then mixture was then diluted to volume with FaSSIF dissolving buffer and mixed well. The FaSSIF solution was equilibrated for 2 hours at room temperature before it was used.\nA FeSSIF dissolving buffer was prepared by weighing 0.82 mL of glacial acetic acid, 404.9 mg of NaOH and 1188.2 mg of NaCl into a 100-mL volumetric flask. A volume of purified water was added to the flask and the mixture was sonicated until the solids were dissolved. A second volume of purified water was added to the target volume to adjust the pH to 5.0. The solution was diluted with a volume of purified water, mixed well the pH value was measured to be 4.96. FeSSIF media was prepared by weighing 559.6 mg of SIF powder into a 50-mL volumetric flask. A volume of FeSSIF dissolving buffer was added to the flask and the resulting mixture was sonicated the SIF powder was dissolved. A second volume FeSSIF dissolving buffer was added and the resulting mixture was mixed well. The FeSSIF solution was equilibrated for 2 hours to room temperature before use.\nAn Agilent 1260 high performance liquid chromatography (HPLC) instrument equipped with a DAD detector, a Waters H-Class UPLC with PDA detector was used in the solubility measurements using the conditions set forth in Table 6.\nAbout 10 mg of a gentisate Form 2 of Compound 1 (calculated by weight of the free base of Compound 1) was placed into a 3 mL glass vial and 1 mL of the respective media (water, SGF, FaSSIF and FeSSIF) was added into each glass vial. A cap was placed on each of the vials and they were rolled at 37 °C (25 rpm) for 4 hours. The suspension was then extracted into a centrifugation tube prior to centrifugation (10000 rpm, 37 °C, 5 min) and filtration (0.22 μm PTFE membrane). The resulting supernatant was analyzed by HPLC and the pH was determined. The solubility of the polymorphic form of a gentisate Form 2 of Compound 1 measured was as set forth above was as set forth in Table 7."}, "[2]": {"assay": "Stability of Form 2 of a gentisate form of Compound 1 under storage conditions (reverse-phase HPLC impurities, XRPD)", "type": "physicochemical", "details": "for Total impurities present: reverse-phase HPLC", "protocol": "To measure stability of the Form 2 of a gentisate form of Compound 1 under storage conditions, samples of Form 2 of a gentisate form of Compound 1 were placed in double low-density polyethylene bags with desiccant between the bags and each was placed into a high-density polyethylene drum. One drum was stored at a temperature of 5 °C and samples of the material were taken at 1 month and 3 months, and the samples were analyzed for the presence of impurities. The other drum was stored at a temperature of 25 °C and at 60% relative humidity (RH), samples of the materials were taken at 1 month and 3 months, and the samples were analyzed for the presence of impurities. The amount of the Form 2 of a gentisate form of Compound 1, and the amount ofany impurities, in each sample was measured by reverse-phase high performance liquid chromatography using the test conditions set and solvent gradients forth in Table 13 and Table 14. The samples were tested to determine the amount remaining of Form 2 at each time point, and the measurements were conducted by x-ray powder diffraction (XRPD) according to USP <941>."}, "[3]": {"details": "storage 5 °C, initial (time = zero)"}, "[4]": {"details": "storage 25 °C and 60% RH, 1 month"}, "[5]": {"details": "storage 25 °C and 60% RH, 3 months"}, "[6]": {"details": "storage 25 °C and 60% RH, initial (time = zero)"}}, "note": "Like-named read-outs stand apart in the source and are kept apart here."}
{"smiles": "O=P(O)(O)[C@@](CO)(COCc1nn[nH]n1)OC[C@H]1O[C@@H](n2ncc3c(NC4CCCC4)nc(Cl)nc32)[C@H](O)[C@@H]1O", "note": "[Form 2 of a gentisate form of Compound 1]", "values": [{"measurement": "pH (of supernatant)", "setting": "[1]; fasted-state simulated intestinal fluid (FaSSIF)", "result": 2.5}, {"measurement": "solubility at 4 h", "setting": "[1]; fasted-state simulated intestinal fluid (FaSSIF), pH 2.5, read-out: Solubility (calculated as the amount of free base of Compound 1)", "result": "> 10.2", "unit": "mg/mL"}, {"measurement": "pH (of supernatant)", "setting": "[1]; fed-state simulated intestinal fluid (FeSSIF)", "result": 4.4}, {"measurement": "solubility at 4 h", "setting": "[1]; fed-state simulated intestinal fluid (FeSSIF), pH 4.4, read-out: Solubility (calculated as the amount of free base of Compound 1)", "result": "> 9.42", "unit": "mg/mL"}, {"measurement": "pH (of supernatant)", "setting": "[1]; simulated gastric fluid (SGF)", "result": 1.7}, {"measurement": "solubility at 4 h", "setting": "[1]; simulated gastric fluid (SGF), pH 1.7, read-out: Solubility (calculated as the amount of free base of Compound 1)", "result": "> 9.71", "unit": "mg/mL"}, {"measurement": "pH (of supernatant)", "setting": "[1]; water", "result": 1.7}, {"measurement": "solubility at 4 h", "setting": "[1]; water, pH 1.7, read-out: Solubility (calculated as the amount of free base of Compound 1)", "result": 26.2, "unit": "mg/mL"}, {"measurement": "XRPD", "setting": "[2]; storage 5 °C, 1 month", "result": "Crystalline"}, {"measurement": "Total impurities present", "setting": "[2]; storage 5 °C, 1 month", "result": 4.5, "unit": "% area"}, {"measurement": "XRPD", "setting": "[2]; storage 5 °C, 3 months", "result": "Crystalline"}, {"measurement": "Total impurities present", "setting": "[2]; storage 5 °C, 3 months", "result": 4.2, "unit": "% area"}, {"measurement": "XRPD", "setting": "[2]; [3]", "result": "Crystalline"}, {"measurement": "Total impurities present", "setting": "[2]; [3]", "result": 4.4, "unit": "% area"}, {"measurement": "XRPD", "setting": "[2]; [4]", "result": "Crystalline"}, {"measurement": "Total impurities present", "setting": "[2]; [4]", "result": 4.5, "unit": "% area"}, {"measurement": "XRPD", "setting": "[2]; [5]", "result": "Crystalline"}, {"measurement": "Total impurities present", "setting": "[2]; [5]", "result": 4.3, "unit": "% area"}, {"measurement": "XRPD", "setting": "[2]; [6]", "result": "Crystalline"}, {"measurement": "Total impurities present", "setting": "[2]; [6]", "result": 4.4, "unit": "% area"}, {"measurement": "Stability", "setting": "[2]; stored at 5 °C", "result": "stable up to 3 months"}, {"measurement": "Stability", "setting": "[2]; stored at 25 °C and at 60% RH", "result": "stable up to 3 months"}]}
